These results are taken from patent US8148089B2, “Alpha-synuclein kinase” (Elan Pharma International Limited, priority 2006, dated 2012).

Assay [1] concerns the target synuclein phosphorylation by endogenous kinase in C56BL/6 WT mouse cortical cultures. In words: Synuclein phosphorylation in WT mouse cortical cultures (WT-MCC). The following applies: inhibitor 2 h; phospho-synuclein ELISA. Format: cell-based. The method, then:
(§1) Mouse cortical cultures from fetal (i) Swiss-Webster, (ii) C56BL/6 WT and (iii) C56BL/6 E46K-Synuclein Trangenic mice were prepared and maintained in B27/DMEM/1% Penicillin-Streptomycin at 37° C./10% CO2 for three to fourteen days and then treated with kinase inhibitors.
(§2) Cultures were exposed to inhibitors for two hours in B27/DMEM/1% Penicillin-Streptomycin. Cells were immediately washed in 100 μL of PBS plus Mg^2+ and Ca^2+, and harvested in ice-cold CEB minus EGTA plus protease inhibitors, frozen on dry ice and stored at −80° C. until processed. A Micro BCA (Pierce) total protein assay, and total synuclein and phospho-synuclein ELISAs were performed on each plate of treated cells using standard methods.
(In general: In an ELISA, binding on a coated surface is turned into a signal by an enzyme label.)

Assay [2] has as its system synuclein phosphorylation in C56BL/6 E46K-Synuclein transgenic mouse cortical cultures. Format: cell-based. The method, then:
as §1, §2

For assay [3], the system named is synuclein phosphorylation in rat ventral mesencephalon cultures (E46K-Synuclein lentivirus). In words: Synuclein phosphorylation in RVM transduced with E46K-Synuclein. Format: cell-based. The method, then:
(§3) Rat Ventral Mesencephalon (RVM) cultures were prepared from E15 Wistar rats. The RVM cultures were cultured for 2 days and transduced with 0.75 MOI E46K-Synuclein lentivirus alone, or 0.75 MOI E46K-Synuclein lentivirus plus 0.75 MOI ca-PLK2 lentivirus. […] Transduced cultures were maintained in neuronal media with B27/1% FBS and 37° C./5% CO2 until treated with inhibitors. On DIV 17 (which corresponds to 15 days after viral transduction of the cultures) cells were treated with inhibitors for two hours. Cells were then harvested as detailed above in neuronal media with B27/1% FBS. A Micro BCA (Pierce) total protein assay, and total synuclein and phospho-synuclein ELISAs were performed on each plate of treated cells using standard methods.

Assay [4] concerns synuclein phosphorylation in rat ventral mesencephalon cultures (E46K-Synuclein plus ca-PLK2 lentivirus). In words: Synuclein phosphorylation in RVM transduced with E46K-Synuclein and caPLK2. Format: cell-based. The settings on record: for EC50: inhibitor 2 h on DIV 17. The method, then: as §3
In caPLK2 the polo-box has been deleted, activating the Thr to Asp mutation in the kinase activation loop.

The next assay deals with endogenous kinase (293). In words: Synuclein phosphorylation by endogenous kinase in HEK-293 cells (synuclein + vector). It counts as cell-based, human. The method, then: (§4) All vectors had the sequence coding for the protein of interest. Transfection was accomplished using Lipofectamine 2000 (Invitrogen, Carlsbad, Calif.) with 0.08 μg vector. Cells were washed and harvested 48 hours post-transfection. A Micro BCA (Pierce) total protein assay and total synuclein and phospho-synuclein ELISAs were performed on each plate of treated cells.

Assay [5] relates to synuclein phosphorylation in the cellular paradigms tested. In words: Inhibition of synuclein phosphorylation, several cellular paradigms. It counts as cell-based.
A further assay concerns the target PLK2 (Homo sapiens, UniProt Q9NYY3). In words: Straight biochemical assay: PLK2-driven synuclein phosphorylation in vitro. The settings on record: Table 19.
The target in assay [6] is T1, over-expressed PLK2 (293) (Homo sapiens, UniProt Q9NYY3).
T1 construct: expressed in transfected cells; host or cells: HEK-293 naive cells, CMV-promoter expression vector, Lipofectamine 2000
T1 sequence (Q9NYY3 whole entry): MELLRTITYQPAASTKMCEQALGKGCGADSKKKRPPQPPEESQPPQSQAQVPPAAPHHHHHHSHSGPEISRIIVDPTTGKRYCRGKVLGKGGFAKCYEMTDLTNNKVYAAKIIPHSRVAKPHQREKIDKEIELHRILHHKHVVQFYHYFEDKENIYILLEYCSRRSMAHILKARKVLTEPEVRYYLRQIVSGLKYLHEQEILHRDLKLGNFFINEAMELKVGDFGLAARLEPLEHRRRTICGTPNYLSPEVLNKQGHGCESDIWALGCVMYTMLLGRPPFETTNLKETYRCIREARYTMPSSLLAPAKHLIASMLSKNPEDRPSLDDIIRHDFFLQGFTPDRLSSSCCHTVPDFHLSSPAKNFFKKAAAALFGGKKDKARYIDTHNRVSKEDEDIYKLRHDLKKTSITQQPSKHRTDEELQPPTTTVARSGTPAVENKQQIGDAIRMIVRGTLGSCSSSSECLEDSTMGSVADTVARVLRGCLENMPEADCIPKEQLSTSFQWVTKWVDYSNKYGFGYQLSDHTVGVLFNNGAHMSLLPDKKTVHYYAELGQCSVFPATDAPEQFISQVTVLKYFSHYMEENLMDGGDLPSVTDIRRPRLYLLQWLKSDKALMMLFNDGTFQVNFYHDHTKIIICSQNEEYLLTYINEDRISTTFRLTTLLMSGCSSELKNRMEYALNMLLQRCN
In words: Synuclein phosphorylation in HEK-293 cells over-expressing synuclein and PLK2. The following applies: for Rank order of potency, Over-Expressed PLK2 (293): Table 19; for Rank order of potency, Synuclein + PLK2: Table 22. It counts as cell-based. The method, then: as §4

Assay [7] deals with T2, over-expressed PLK3 (293) (Homo sapiens, UniProt Q9H4B4).
T2 construct: expressed in transfected cells; host or cells: HEK-293 naive cells, CMV-promoter expression vector
T2 sequence (Q9H4B4 whole entry): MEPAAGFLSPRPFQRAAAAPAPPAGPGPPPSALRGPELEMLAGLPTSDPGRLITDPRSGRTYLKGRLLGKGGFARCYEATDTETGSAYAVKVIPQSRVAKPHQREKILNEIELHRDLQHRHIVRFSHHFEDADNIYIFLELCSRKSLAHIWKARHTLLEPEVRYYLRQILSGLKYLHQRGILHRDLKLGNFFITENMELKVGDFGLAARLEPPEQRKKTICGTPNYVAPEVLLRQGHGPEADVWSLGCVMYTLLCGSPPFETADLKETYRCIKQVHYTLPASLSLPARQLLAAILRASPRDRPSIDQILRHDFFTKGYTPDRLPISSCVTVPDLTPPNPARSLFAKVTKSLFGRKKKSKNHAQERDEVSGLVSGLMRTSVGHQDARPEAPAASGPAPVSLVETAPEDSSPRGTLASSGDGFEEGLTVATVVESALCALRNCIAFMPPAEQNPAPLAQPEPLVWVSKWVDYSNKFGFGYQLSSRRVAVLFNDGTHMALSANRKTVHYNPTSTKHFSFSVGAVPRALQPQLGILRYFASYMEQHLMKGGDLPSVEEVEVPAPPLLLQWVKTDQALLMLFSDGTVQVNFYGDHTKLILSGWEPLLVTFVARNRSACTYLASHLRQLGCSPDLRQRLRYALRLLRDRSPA
In words: Synuclein phosphorylation in HEK-293 cells over-expressing synuclein and PLK3. Format: cell-based. The following applies: for Rank order of potency, Synuclein + PLK3: Table 22. The method, then:
as §4

Assay [8] has as its target T3, over-expressed PLK4 (293) (Homo sapiens, UniProt O00444).
T3 sequence (O00444 1-970): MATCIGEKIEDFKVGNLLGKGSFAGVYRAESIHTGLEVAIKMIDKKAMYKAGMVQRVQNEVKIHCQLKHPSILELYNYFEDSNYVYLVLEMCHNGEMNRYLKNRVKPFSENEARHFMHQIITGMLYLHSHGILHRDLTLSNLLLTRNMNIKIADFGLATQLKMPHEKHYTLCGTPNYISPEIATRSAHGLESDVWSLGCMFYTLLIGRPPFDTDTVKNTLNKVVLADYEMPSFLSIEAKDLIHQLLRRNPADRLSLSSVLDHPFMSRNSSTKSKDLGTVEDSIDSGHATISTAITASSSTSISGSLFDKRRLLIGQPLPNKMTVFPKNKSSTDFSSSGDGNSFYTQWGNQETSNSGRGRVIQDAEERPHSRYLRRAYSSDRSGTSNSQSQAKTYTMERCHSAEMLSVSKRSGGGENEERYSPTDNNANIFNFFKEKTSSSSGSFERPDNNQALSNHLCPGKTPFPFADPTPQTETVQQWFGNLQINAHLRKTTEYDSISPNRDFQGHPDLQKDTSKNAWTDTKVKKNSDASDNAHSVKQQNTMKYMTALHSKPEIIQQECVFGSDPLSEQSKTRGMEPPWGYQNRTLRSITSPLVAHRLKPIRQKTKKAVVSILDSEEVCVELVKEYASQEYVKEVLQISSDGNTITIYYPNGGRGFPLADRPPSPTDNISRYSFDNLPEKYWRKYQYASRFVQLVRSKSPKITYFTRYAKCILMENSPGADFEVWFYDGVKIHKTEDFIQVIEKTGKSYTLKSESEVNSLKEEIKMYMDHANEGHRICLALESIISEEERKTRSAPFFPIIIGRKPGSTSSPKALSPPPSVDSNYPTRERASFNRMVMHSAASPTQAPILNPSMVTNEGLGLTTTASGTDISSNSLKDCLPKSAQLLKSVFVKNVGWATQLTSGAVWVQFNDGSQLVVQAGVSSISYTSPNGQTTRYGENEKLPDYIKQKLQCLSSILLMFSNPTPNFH
In words: Synuclein phosphorylation in HEK-293 cells over-expressing synuclein and PLK4. Format: cell-based. The following applies: for EC50: HEK-293, Example 16, read-out: EC50 based on percent inhibition of synuclein phosphorylation, Synuclein + PLK4. The method, then: as §4

In assay [9] the test system is synuclein phosphorylation in MCC. In words: Synuclein phosphorylation in MCC treated with TBB. It counts as cell-based, mouse. The settings on record: even at concentrations of 100 μM; data not shown. The method, then: as §1, §2
To confirm that the inhibitory effect DMAT is due to inhibition of […], MCC were treated with TBB, a very specific CKII inhibitor. TBB had no effect on synuclein phosphorylation, even at concentrations of 100 μM (data not shown). Thus, we are confident that the inhibitory effect of DMAT on synuclein phosphorylation is due to its direct activity on PLK2 and not CKII.

Like-named read-outs stand apart in the source and are kept apart here.

PLK2, sequence (Q9NYY3 whole entry): as the sequence (Q9NYY3 whole entry) above

As a reminder, the EC50 is the concentration needed to bring the measured effect to its halfway point. For Scytonemin, the EC50 in assay [1] was greater than 100 µM; in assay [2] (inhibitor 2 h, phospho-synuclein ELISA, read-out: E46K-Syn TG MCC (EC50)), greater than 100 µM; in assay [3] (inhibitor 2 h on DIV 17) it was greater than 100 µM; in assay [4] it was greater than 100 µM; in the assay with endogenous kinase (293) (Table 18) it was greater than 100 µM. Moreover, in [5] (in any of the cells or in the in vitro assay), the “inhibition of 50% of synuclein phosphorylation” value is recorded as “did not inhibit 50% of synuclein phosphorylation”.
Regarding `CN(C)c1nc2c(Br)c(Br)c(Br)c(Br)c2[nH]1` [DMAT, 2-Dimethylamino-4,5,6,7-tetrabromo-1H-benzimidazole], the “Rank order of potency, Straight Biochemical” value at PLK2 came out at 2. The “Rank order of potency, E46K-Syn TG MCC” value in assay [2] (Table 19) is listed as 4. Moreover, the “Rank order of potency, RVM E46K-Synuclein” value in [3] (Table 19) worked out at 4. In addition, the EC50 is 28.5 µM in assay [4] (Rattus norvegicus); 74.3 µM in assay [8]; 14 to 74 µM in assay [5] (Homo sapiens, HEK293, read-out: EC50 values for the over-expressed PLKs); 16 to 33 µM in [5] (read-out: EC50 values for inhibition of synuclein phosphorylation in the cellular paradigms). Besides, the “Rank order of potency, RVM E46K-Synuclein caPLK2” value in assay [4] (Table 19) is 4. Also, the “Rank order of potency, Synuclein + Vector” value with endogenous kinase (293) (Table 22) stood at 2. In addition, the “Rank order of potency, Over-Expressed PLK2 (293)” value in [6] is 4. Moreover, the “Rank order of potency, Synuclein + PLK2” value in [6] is given as 2. In addition, the “Rank order of potency, Synuclein + PLK3” value in assay [7] stood at 2. Moreover, in assay [8] (Table 22), the “Rank order of potency, Synuclein + PLK4” value is on record as 2.
In the case of `COC[C@H]1OC(=O)c2coc3c2[C@@]1(C)C1=C(C3=O)[C@@H]2CCC(=O)[C@@]2(C)C[C@H]1OC(C)=O` [Wortmannin], the EC50 in [4] (Rattus norvegicus) is greater than 100 µM.
For the compound `CC[C@@H]1C(=O)N(C)c2cnc(Nc3ccc(C(=O)NC4CCN(C)CC4)cc3OC)nc2N1C1CCCC1` [ELN-481574-2, 4-[[(7r)-8-cyclopentyl-7-ethyl-5,6,7,8-tetrahydro-5-methyl-6-oxo-2-pteridinyl]amino]-3-methoxy-n-(1-methyl-4-piperidinyl)-benzamide], the EC50 in [5] (most EC50 values, all cellular paradigms, read-out: EC50 values in cellular paradigms) was no more than 0.1 µM.
Turning to `Brc1c(Br)c(Br)c2[nH]nnc2c1Br` [TBB, 4,5,6,7-Tetrabromo-2-azabenzimidazole], the “effect on synuclein phosphorylation” value in assay [9] is reported as “no effect”.
In the case of `NC(=O)c1sc2c([N+](=O)[O-])cc(C(F)(F)F)cc2[n+]1[O-]` [ELN-481080], the “Rank order of potency, Straight Biochemical” value at PLK2 is 3. For the same compound, the EC50 in assay [4] (Rattus norvegicus) is 25.2 µM; in [8], greater than 100 µM; in assay [5] (range over (most of) the cell types tested, read-out: EC50 values for inhibition of synuclein phosphorylation in the cellular paradigms), 12 to 38 µM. In addition, in assay [6], the “Rank order of potency, Over-Expressed PLK2 (293)” value came out at 5. Besides, in assay [6], the “Rank order of potency, Synuclein + PLK2” value came out at 3. The “Rank order of potency, Synuclein + PLK3” value in [7] is 3. Moreover, the “inhibition of synuclein phosphorylation by over-expressed PLK3” value in [7] (concentrations of 30-100 μM) is on record as 30-40%. For the same compound, the “inhibition of synuclein phosphorylation by over-expressed PLK4” value in [8] (concentrations of 30-100 μM) is given as 30-40%.
